Organism: Rattus norvegicus
Experiment: Open TG-GATES - Regimen: Daily Repeat
Assay type: toxicity, organism-based, Sprague-Dawley
Design: regimen Daily Repeat, gender Male, age 6 weeks
Settings: in vivo, po, route gavage; for APTT / Bas / Eos / Fbg / Hb / Ht / Lym / MCH / MCHC / MCV / Mono / PT / Plat / RBC / Ret / WBC / Neu: tissue Blood; for ALP / ALT / BUN / CRE / DBIL / GLC / IP / K / LDH / Na / PL / RALB / TBIL / TC / TG / TP / gamma-GTP: tissue Plasma
[1] = 0 mg/kg, 72 h, dose level Control, time 3 day
[2] = 0 mg/kg, […], dose level Control, time 7 day
[3] = 0 mg/kg, […], dose level Control, time 14 day
[4] = 0 mg/kg, […], dose level Control, time 28 day
[5] = 60 mg/kg, 72 h, dose level Low, time 3 day
[6] = 60 mg/kg, […], dose level Low, time 7 day
[7] = 60 mg/kg, […], dose level Low, time 14 day
[8] = 60 mg/kg, […], dose level Low, time 28 day

## CCN(CC)C(=S)SSC(=S)N(CC)CC
[1]
  TERMINAL_BW: 228.6 g
  APTT: 22.7 s
  Bas: 0%
  Eos: 0.8%
  Fbg: 295 mg/dL
  Hb: 12.5 g/dL
  Ht: 38.7%
  Lym: 81.8%
  MCH: 20.5 pg
  MCHC: 32.2%
  MCV: 63.6 fL
  Mono: 2.4%
  PT: 16.3 s
  Plat: 112 x10_4/uL
  RBC: 609 x10_4/ul
  Ret: 7%
  WBC: 78.4 x10_2/uL
  ALP: 1421 IU/L
  ALT: 42.6 IU/L
  BUN: 17.6 mg/dL
  CRE: 0.2 mg/dL
  DBIL: 0 mg/dL
  GLC: 192.2 mg/dL
  IP: 7.8 mg/dL
  K: 4.2 meq/L
  LDH: 190.4 IU/L
  Na: 142.6 meq/L
  PL: 136.8 mg/dL
  RALB: 3.1 g/dL
  TBIL: 0.002 mg/dL
  TC: 73.4 mg/dL
  TG: 91.6 mg/dL
  TP: 5.5 g/dL
  gamma-GTP: 1.4 IU/L
[2]
  TERMINAL_BW: 265.7 g
  APTT: 22.1 s
  Bas: 0%
  Eos: 0.8%
  Fbg: 315 mg/dL
  Hb: 12.8 g/dL
  Ht: 39.2%
  Lym: 82%
  MCH: 20.3 pg
  MCHC: 32.6%
  MCV: 62.3 fL
  Mono: 2.8%
  PT: 16.4 s
  Plat: 116.8 x10_4/uL
  RBC: 629 x10_4/ul
  Ret: 6.3%
  WBC: 134.5 x10_2/uL
  ALP: 1448.6 IU/L
  ALT: 43.6 IU/L
  BUN: 17.4 mg/dL
  CRE: 0.2 mg/dL
  DBIL: 0 mg/dL
  GLC: 203.8 mg/dL
  IP: 7.9 mg/dL
  K: 4.5 meq/L
  LDH: 223 IU/L
  Na: 142 meq/L
  PL: 138.4 mg/dL
  RALB: 3.1 g/dL
  TBIL: 0.008 mg/dL
  TC: 71.4 mg/dL
  TG: 106.6 mg/dL
  TP: 5.5 g/dL
  gamma-GTP: 2.2 IU/L
[3]
  TERMINAL_BW: 313.3 g
  APTT: 23.7 s
  Bas: 0%
  Eos: 1%
  Fbg: 311.2 mg/dL
  Hb: 13.9 g/dL
  Ht: 41.2%
  Lym: 82.4%
  MCH: 20.1 pg
  MCHC: 33.9%
  MCV: 59.4 fL
  Mono: 2%
  Neu: 13.4%
  PT: 16.3 s
  Plat: 112 x10_4/uL
  RBC: 693.4 x10_4/ul
  Ret: 4.9%
  WBC: 133.7 x10_2/uL
  ALP: 1430.8 IU/L
  ALT: 45 IU/L
  BUN: 20.8 mg/dL
  CRE: 0.2 mg/dL
  DBIL: 0 mg/dL
  GLC: 204.2 mg/dL
  IP: 7.4 mg/dL
  K: 4.4 meq/L
  LDH: 167 IU/L
  Na: 141.2 meq/L
  PL: 143 mg/dL
  RALB: 3.2 g/dL
  TBIL: 0 mg/dL
  TC: 73.6 mg/dL
  TG: 91.4 mg/dL
  TP: 5.8 g/dL
  gamma-GTP: 2.6 IU/L
[4]
  TERMINAL_BW: 364.4 g
  APTT: 24.8 s
  Bas: 0%
  Eos: 1.2%
  Fbg: 321.4 mg/dL
  Hb: 15.2 g/dL
  Ht: 44.8%
  Lym: 83.2%
  MCH: 19.5 pg
  MCHC: 34%
  MCV: 57.5 fL
  Mono: 2.2%
  Neu: 12.2%
  PT: 16.6 s
  Plat: 98.2 x10_4/uL
  RBC: 780.6 x10_4/ul
  Ret: 2.8%
  WBC: 121 x10_2/uL
  ALP: 1127.4 IU/L
  ALT: 35 IU/L
  BUN: 18.4 mg/dL
  CRE: 0.2 mg/dL
  DBIL: 0 mg/dL
  GLC: 202.8 mg/dL
  IP: 6.8 mg/dL
  K: 4 meq/L
  LDH: 154.8 IU/L
  Na: 143.2 meq/L
  PL: 145 mg/dL
  RALB: 3.2 g/dL
  TBIL: 0.014 mg/dL
  TC: 76 mg/dL
  TG: 113.4 mg/dL
  TP: 6 g/dL
  gamma-GTP: 2.6 IU/L
[5]
  TERMINAL_BW: 224.7 g
  APTT: 21.1 s
  Bas: 0%
  Eos: 0.6%
  Fbg: 308.2 mg/dL
  Hb: 12.3 g/dL
  Ht: 38.1%
  MCH: 19.7 pg
  MCHC: 32.2%
  MCV: 61.2 fL
  Mono: 2.2%
  PT: 15.9 s
  Plat: 113.7 x10_4/uL
  RBC: 624.4 x10_4/ul
  Ret: 4.6%
  WBC: 88.7 x10_2/uL
  ALP: 1308.8 IU/L
  ALT: 45.4 IU/L
  BUN: 17.8 mg/dL
  CRE: 0.2 mg/dL
  DBIL: 0 mg/dL
  GLC: 178.8 mg/dL
  IP: 7 mg/dL
  K: 4.1 meq/L
  LDH: 188 IU/L
  Na: 143.6 meq/L
  PL: 151.6 mg/dL
  RALB: 3.1 g/dL
  TBIL: 0.004 mg/dL
  TC: 86.2 mg/dL
  TG: 83 mg/dL
  TP: 5.5 g/dL
  gamma-GTP: 1.6 IU/L
[6]
  TERMINAL_BW: 255.2 g
  APTT: 21.7 s
  Bas: 0%
  Eos: 0.6%
  Fbg: 312.8 mg/dL
  Hb: 12.4 g/dL
  Ht: 38.4%
  MCH: 20.1 pg
  MCHC: 32.3%
  MCV: 62.1 fL
  Mono: 2.4%
  PT: 16 s
  Plat: 129.8 x10_4/uL
  RBC: 620.4 x10_4/ul
  Ret: 7.5%
  WBC: 137.8 x10_2/uL
  ALP: 991.6 IU/L
  ALT: 37.4 IU/L
  BUN: 16.8 mg/dL
  CRE: 0.2 mg/dL
  DBIL: 0 mg/dL
  GLC: 183 mg/dL
  IP: 7 mg/dL
  K: 4.4 meq/L
  LDH: 217.8 IU/L
  Na: 143.6 meq/L
  PL: 142.4 mg/dL
  RALB: 3 g/dL
  TBIL: 0.012 mg/dL
  TC: 78.4 mg/dL
  TG: 64.2 mg/dL
  TP: 5.5 g/dL
  gamma-GTP: 1.8 IU/L
[7]
  TERMINAL_BW: 296.1 g
  APTT: 23.8 s
  Bas: 0%
  Eos: 1%
  Fbg: 319.4 mg/dL
  Hb: 13.9 g/dL
  Ht: 40.9%
  MCH: 19.7 pg
  MCHC: 33.8%
  MCV: 58.2 fL
  Mono: 2.8%
  PT: 16.1 s
  Plat: 124.6 x10_4/uL
  RBC: 704.6 x10_4/ul
  Ret: 5.1%
  WBC: 126 x10_2/uL
  ALP: 1244.8 IU/L
  ALT: 37.6 IU/L
  BUN: 18.6 mg/dL
  CRE: 0.2 mg/dL
  DBIL: 0 mg/dL
  GLC: 178 mg/dL
  IP: 6.2 mg/dL
  K: 4.1 meq/L
  LDH: 146.8 IU/L
  Na: 142 meq/L
  PL: 165.2 mg/dL
  RALB: 3.2 g/dL
  TBIL: 0.004 mg/dL
  TC: 92.4 mg/dL
  TG: 70.6 mg/dL
  TP: 5.9 g/dL
  gamma-GTP: 2.8 IU/L
[8]
  TERMINAL_BW: 358.2 g
  APTT: 24 s
  Bas: 0%
  Eos: 1%
  Fbg: 329.2 mg/dL
  Hb: 14.2 g/dL
  Ht: 41.1%
  MCH: 19.2 pg
  MCHC: 34.7%
  MCV: 55.4 fL
  Mono: 2.2%
  PT: 16.5 s
  Plat: 108.8 x10_4/uL
  RBC: 742.2 x10_4/ul
  Ret: 3.3%
  WBC: 116.8 x10_2/uL
  ALP: 808.4 IU/L
  ALT: 36 IU/L
  CRE: 0.2 mg/dL
  DBIL: 0 mg/dL
  GLC: 183.4 mg/dL
  IP: 5.8 mg/dL
  K: 4 meq/L
  LDH: 106.2 IU/L
  Na: 142.4 meq/L
  PL: 150.2 mg/dL
  RALB: 3 g/dL
  TBIL: 0.018 mg/dL
  TC: 87.2 mg/dL

Source: ChEMBL document CHEMBL3885861, “Open TG-GATES”
